Experimental data: PubChem BioAssay AID1259340 (Broad Institute, 2017)
The source made the active and inactive calls.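 How the source made its calls: active means AC50 no more than ten times the top concentration tested; inconclusive means flat fit with inhibition between 30% and 70%, or unusable fit; inactive means AC50 beyond ten times the top concentration.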

Biological target: Caspase recruitment domain-containing protein 9 (Homo sapiens) + B-cell lymphoma/leukemia 10 (Homo sapiens) (UniProt Q9H257+O95999)
Sequence (O95999 whole entry, looked up, the tested form may be a part): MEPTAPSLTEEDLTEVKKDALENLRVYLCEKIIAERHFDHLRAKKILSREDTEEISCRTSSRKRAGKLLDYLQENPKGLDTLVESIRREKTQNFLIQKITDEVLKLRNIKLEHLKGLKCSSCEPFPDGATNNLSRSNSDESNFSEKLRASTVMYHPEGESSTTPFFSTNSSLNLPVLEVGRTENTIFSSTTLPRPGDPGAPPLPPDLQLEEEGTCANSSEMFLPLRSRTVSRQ
Sequence (Q9H257 whole entry, looked up, the tested form may be a part): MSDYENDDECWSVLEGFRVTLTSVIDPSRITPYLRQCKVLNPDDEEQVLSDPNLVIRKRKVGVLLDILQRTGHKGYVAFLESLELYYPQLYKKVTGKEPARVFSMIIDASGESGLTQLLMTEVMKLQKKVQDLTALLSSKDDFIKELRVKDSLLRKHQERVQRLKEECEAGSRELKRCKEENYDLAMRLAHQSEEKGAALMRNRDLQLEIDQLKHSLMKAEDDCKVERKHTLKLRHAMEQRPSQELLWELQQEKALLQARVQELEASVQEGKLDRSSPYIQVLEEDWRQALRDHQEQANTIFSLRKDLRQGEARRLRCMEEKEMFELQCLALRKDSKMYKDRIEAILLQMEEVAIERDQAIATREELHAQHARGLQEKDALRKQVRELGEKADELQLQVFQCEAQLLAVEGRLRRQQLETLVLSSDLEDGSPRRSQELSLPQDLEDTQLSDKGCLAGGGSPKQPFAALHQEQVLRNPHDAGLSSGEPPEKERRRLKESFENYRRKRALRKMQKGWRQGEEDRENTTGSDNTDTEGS
Experiment: disruptors of CARD9-BCL10 binding, dose response, selectivity assay for CARD9-TRIM62 disruptor project, cell lysate, HEK293FT lysates, Luminex bead ELISA (AID 1259340)
Conditions: for activity change, negative = inhibition: at 80 µM (top of the series)

| Compound | AC50 | activity change, negative = inhibition |
| --- | --- | --- |
| NC(=O)c1ccc(CN2C(=O)C3(CCNCC3)Nc3ccccc32)cc1 | > 160 µM (inactive) |  |
| O=C(NCCCN1CCOCC1)c1cc(-c2ccco2)nc2ccccc12 |  | inactive |
| O=C(COc1cccnc1[N+](=O)[O-])c1ccc(Cl)s1 | 40 µM |  |
| O=C(O)CCc1ccc(-c2cccs2)n1NC(=O)c1ccco1 | > 160 µM (inactive) |  |
| CC(C)(C)c1ccc(-c2nc(C#N)c(NCc3ccncc3)o2)cc1 |  | inactive |
| O=C(COC(=O)c1cc(-c2ccco2)nc2ccccc12)NCc1ccccc1 |  | inactive |
| CCCN1CCCn2nc(CNC(=O)[C@H]3CC[C@@H](N)C3)cc2C1 |  | inactive |
| Cc1ccc(N2NC(c3ccc(Br)cc3)=CCC2=O)cc1 |  | inactive |
| O=C(COC(=O)c1cc(-c2cccs2)nc2ccccc12)NCc1ccco1 | > 160 µM (inactive) |  |
| CC(C)C(CC(=O)NCc1ccco1)c1ccco1 (stereo unspecified) |  | inactive |
| Cc1ccc(-c2cc(C(=O)NCc3ccco3)c3ccccc3n2)o1 | 80.3 µM |  |
| N#CNc1nc(O)cc(=O)[nH]1 |  | inactive |
| CCc1ccc(Nc2nc(C(=O)NCc3ccc(N(C)C)cc3)nc3ccccc23)cc1 | 7.97 µM |  |
| O=S(=O)(c1ccccc1)N1CC2CN(Cc3ccc(O)cc3)C2C1 (stereo unspecified) |  | inactive |
| O=C(Nc1nc(-c2ccco2)c(-c2ccco2)s1)c1ccc(F)cc1F | > 160 µM (inactive) |  |
| O=C(Nc1ccc(OCC(=O)N2CCOCC2)cc1)c1cncc(Br)c1 |  | inactive |

| Compound | AC50 | activity change, negative = inhibition |
| --- | --- | --- |
| Cc1cnc(C)c(N2CCN(C(=O)[C@H]3CC[C@@H](N)C3)CC2)n1 |  | inactive |
| O=C(NC1(C(F)(F)F)Oc2ccc(Cl)cc2O1)N1CCC2(CC1)OCCO2 (stereo unspecified) | 74.8 µM |  |
| CC(=O)Nc1ccc(Nc2nc(-c3nnc(-c4cccc(C)c4)o3)nc3ccccc23)cc1 | 72.4 µM |  |
| O=C(Nc1nccs1)c1cc(-c2ccco2)nc2ccccc12 | > 160 µM (inactive) |  |
| Cc1cccc2nc(CSCc3ccco3)cn12 | > 160 µM (inactive) |  |
| COC[C@]1(O)CCN(C(=O)CCN(C)S(C)(=O)=O)CC1(C)C |  | inactive |
| C[C@H](CO)N1C[C@H](C)[C@@H](CN(C)CC2CCCCC2)OCCCC[C@H](C)Oc2ccc(NS(=O)(=O)c3ccc(F)cc3)cc2C1=O | > 160 µM (inactive) |  |
| NC(=O)C1(N2CCCCC2)CCN(c2ccc(NC(=O)c3cccc(Cl)c3)cc2C(=O)O)CC1 |  | inactive |
| NC(=O)C1(N2CCCCC2)CCN(c2ncc(NC(=O)c3cccs3)cc2C(=O)O)CC1 |  | inactive |
| Nc1ccc2ncccc2c1N | 16.1 µM |  |
| O=C1C=C(c2ccccc2)Nc2ccccc2N1 | > 160 µM (inactive) |  |
| Cc1ccc(N2C(=O)c3ccccc3C2C(=O)c2ccc(O)cc2O)cc1 (stereo unspecified) |  | inactive |
| O=C(Cc1ccc(S(=O)(=O)N2CCOCC2)s1)Nc1nc2c(s1)CCCC2 |  | inactive |
| c1ccc(-c2nc(-c3ccco3)n3ccccc23)cc1 | > 160 µM (inactive) |  |
| CC1=CCC(C(=O)O)C(C(=O)NC2CCCCC2)C1 (stereo unspecified) |  | inactive |
